Test results taken from patent EP1366764A1, “Method of screening for calcium receptor-active molecules” (The Brigham & Women's Hospital, Inc., priority 1993, dated 1994).
pEC50, pIC50: −log10 of the molar value.

What was measured:
[1] = Hypocalcemic activity in vivo (serum or whole blood ionized Ca2+, PTH) in rats
Description: Male Sprague-Dawley rates (200 g) were maintained on a low calcium diet for one week prior to receiving test substance or vehicle as control.
Rats (male, Sprague-Dawley, 250-300 g) were fed standard rat chow and fasted overnight prior to the experiment.

[2] = Net positive charge of the molecule; format: physicochemical; conditions: at physiological pH (pH 7.3)
rMTC 6-23 cells = experiment: Measurement of cytosolic Ca2+ in C-cells (fura-2); format: cell-based, rat
rat osteoclasts = experiment: Measurement of [Ca2+]i in single rat osteoclasts (indo-1); format: cell-based

Row | Compound | Net (+) Charge [2] | further results
1 | COc1cccc(C(C)NCCCc2ccccc2)c1 (racemic) [NPS 467] |  | return of hypocalcemic effect toward control ([1]; 25 mg/kg (Fig. 40)): returned toward control levels after 24 hours; time of maximal hypocalcemic effect ([1]; 25 mg/kg (Fig. 40)): maximal within three hours; serum albumin or phosphate levels ([1]; any of the doses examined): no change; circulating levels of PTH ([1]; doses effective in lowering blood Ca2+, preliminary studies): dose-dependent reduction; serum or whole blood Ca^2+ ([1]; i.p., low calcium diet, three hours after administration): dose-dependent reduction
2 | NCCCCCCCCCCCCN [1,12-diaminododecane (DADD), 1,12-diaminododecane] | +2 | 
3 | NC(=O)C[C@H](NC(=O)Cc1c[nH]c2cccc(O)c12)C(=O)NCCCCCNCCCNCCCNC(=O)[C@@H](N)CCCN=C(N)N [Argiotoxin-659] | +4 | 
4 | NCCCNCCCCNCCCNCCCN(O)CCCNC(=O)Cc1c[nH]c2cccc(O)c12 [NPS 015] |  | EC50 (C-CELL) (rMTC 6-23 cells; rMTC 6-23 cells, fura-2, "inactive" = no increase in cytosolic Ca2+ at 1 mM or 1-5 mM (footnote)): inactive; pIC50 (rMTC 6-23 cells; read-out: IC50 for block of extracellular Ca^2+-induced increases in [Ca^2+]i, rMTC cells, block of the L-type voltage-sensitive Ca2+ channel): 5.52
5 | NCCCNCCCCNCCCNCCCN(O)CCCNC(=O)Cc1c[nH]c2ccccc12 [NPS 017] |  | EC50 (OSTEOCLAST) (rat osteoclasts; rat osteoclasts, indo-1, "inactive" = no increase in cytosolic Ca2+ at 1 mM or 1-5 mM (footnote)): inactive
6 | NCCCNCCCCNCCCNCCCNCCCNC(=O)Cc1c[nH]c2ccccc12 [NPS 019] |  | pEC50 (rMTC 6-23 cells; rMTC 6-23 cells, fura-2, "inactive" = no increase in cytosolic Ca2+ at 1 mM or 1-5 mM (footnote), read-out: EC50 (C-CELL)): 5.30
7 | NCCCN(CCCN)CCCN(CCCN)CCCCN(CCCN)CCCN(CCCN)CCCN [NPS 381, N^1,N^1,N^5,N^10,N^14,N^14-hexakis-(3-aminopropyl) spermine] | +10 | 
8 | NCCCN1CCCN(CCCN)CCN(CCCN)CCCN(CCCN)CC1 [NPS 383] | +8 | 
9 | NCCNCCNCCNCCN [Tetraethylenepentamine (TEPA), Tetraethylenepentamine] | +5 | 
10 | NCCNCCNCCN [Triethylenetramine (TETA), triethylenetetramine] | +4 | 
11 | NC[C@H]1O[C@H](O[C@H]2[C@H](O)[C@@H](O[C@H]3O[C@H](CO)[C@@H](O)[C@H](N)[C@H]3O)[C@H](N)C[C@@H]2N)[C@H](N)[C@@H](O)[C@@H]1O [bekanamycin] | +5 | 
12 | CCC[C@@H]1C[C@@H](C(=O)N[C@@H]([C@H]2O[C@H](SC)[C@H](O)[C@@H](O)[C@H]2O)[C@@H](C)O)N(C)C1 [lincomycin] | +1 | 
13 | NCCCCNCCCN [spermidine] | +3 | increase in [Ca^2+]i, % of that evoked by a maximal concentration of extracellular Ca^2+ (rat osteoclasts; 1 mM): about 10%
14 | [H]/N=C(/N)N[C@H]1[C@H](O)[C@@H](O)[C@H](O[C@@H]2O[C@@H](C)[C@](O)(C=O)[C@H]2O[C@@H]2O[C@@H](CO)[C@H](O)[C@@H](O)[C@@H]2NC)[C@@H](N/C(N)=N\[H])[C@@H]1O [streptomycin] | +3 | 
15 | COc1ccc(CCN(C)CCCC(C#N)(c2ccc(OC)c(OC)c2)C(C)C)cc1OC (stereo not shown) [verapamil] |  | increase in [Ca^2+]i (rat osteoclasts; 100 µM): caused no detectable increase in [Ca^2+]i
16 | gentamicin | +5 | 
